Each block holds one compound with its values, some of them ahead of it. Residues, ends and D or L forms follow the SMILES beside them. *: point of attachment. Myristoyl = CCCCCCCCCCCCCC(=O)*
Assays:
Assay type in all cases: cell-based, human
[1] = test system: platelets
Description: (§1) FIG. 2A-C: Quantitative analysis of the effect of myristoylated RGT peptide on platelet stable adhesion and spreading on immobilized fibrinogen. FIG. 2A: Platelets were added to microtiter wells precoated with fibrinogen and allowed to adhere for 30 min at 37° C. The phosphatase activity in supernatants (open columns) or in adherent platelets (close columns) was quantified by a PNPP assay. Data of three experiments (means and SD) were presented as the ratio of the phosphatase activity of platelet samples over blank. The asterisks indicate peptide concentration (* 62.5 μM; ** 125 μM; *** 250 μM). […] The phosphatase activity in supernatants (open columns) or in remaining platelet suspensions (close columns) was quantified by a PNPP assay. […] For quantitative analysis of the effect of the RGT peptide on platelet adhesion, we used a phosphatase assay. […] Nonadherent platelets were removed by three vigorous washes with phosphate-buffered saline (PBS), and adherent platelets were quantified by a phosphatase assay. In addition, to monitor peptide-dependent platelet lysis, the platelet phosphatase activity was separately measured in the supernatant of the platelets in suspension or following their adhesion to fibrinogen by mixing with PNPP substrate solution (100 mM sodium acetate, 1% Triton X-100, 3 mg/ml p-nitrophenyl phosphate) for 60 min at 37° C. […]

[2] = test system: platelets; experiment: Platelet stable adhesion on immobilized fibrinogen (phosphatase assay); settings: 62.5-250 μM
Description: as §1

[3] = test system: washed platelets; experiment: Plasma-free platelet-mediated fibrin clot retraction with washed platelets; settings: 1 mM
Description: FIG. 3A-B: Effects of myr-RGT on fibrin clot retraction and platelet aggregation. FIG. 3A: Platelets were washed and resuspended in HEPES buffer containing 2 mg/ml of human fibrinogen (see “Experimental Procedures”) and incubated with different peptides or their vehicles as indicated. Fibrin clot formation was initiated by adding 1 U/ml thrombin. Clot retraction was monitored over time and photographs of the clots were taken at different time points (lower panel). The asterisks indicate peptide concentration (* 62.5 μM; ** 125 μM; *** 250 μM). The histograms of the clot size were generated from the photographs by calculating the ratio of the surface area of the retracted clot versus that of the initial clot. […]
Platelet clot retraction is an essential step in platelet thrombus consolidation and is initiated following platelet activation as a late consequence of integrin outside-in signaling. […] Clot retraction was monitored over a 90 min time period by taking photographs at indicated time points using a digital camera. Clot retraction was quantified on the photographs by measuring the clot surface area with the NIH Image 1.67e software, and the data were processed using Excel 4.0. Results were expressed as percentage of retraction (%=area t/area t0×100%).

- platelet lysis [1]: did not induce platelet lysis
Compound: CCCCCCCCCCCCCC(=O)N[C@@H](CCCNC(=N)N)C(=O)NCC(=O)N[C@H](C(=O)O)[C@@H](C)O [myr-RGT] (Myristoyl-Arg-Gly-Thr-OH; N-terminus and C-terminus assumed)

Compound: CCCCCCCCCCCCCC(=O)O [myristic acid, tetradecanoic acid]
- effect on platelet stable adhesion on immobilized fibrinogen [2]: no significant inhibitory effect

Compound: RGDS
- inhibition of clot retraction [3]: inhibit clot retraction

Source: patent publication US8563690B2, “Modulation of platelet aggregation” (The Board of Trustees of the University of Illinois, priority 2008, dated 2013)
